This is an account of results in article PMC3038857, “Using Nuclear Receptor Activity to Stratify Hepatocarcinogens” (PLoS ONE, 2011).

One data set relates to SR. Conditions: cited from earlier work.
The subject of data set [1] is liver. The following applies: in vivo.
A further data set has as its system PPAR. The data set can be described thus: Aggregate nuclear receptor activity: PPAR. Conditions: aggregate human NR activity, in words. The text has this:
(§1) To summarize the activity of chemicals across the NR superfamily we aggregated the ToxCast assays for genes and NR groups as follows: retinoic X receptor-like (RXR; [drawing 5]; NR2B); peroxisome proliferator-activated receptor-like (PPAR; [drawing 6]; NR1C); constitutive androstane receptor ( [drawing 7]; [drawing 8]; [drawing 9] ); pregnane X receptor ( [drawing 10]; [drawing 11] ); liver X receptor-like (LXR; [drawing 12] , FXR; NR1H); and steroid receptor-like (SR; [drawing 13] , [drawing 14] , [drawing 15] ). These are shown visually in Figure 1(a). As there were differences in the number and types of assays for each group, aggregate activity was calculated as the average potency across the assays measured by the AC50 or LEC (described in Methods). This approach aggregated NR binding, activation, agonism or antagonism results into a single assessment of activity.
(§2) All data used in this analysis are publicly available from the ToxCast website (www.epa.gov/toxcast). The analysis was conducted using the R statistical language (www.r-project.org). For each chemical [drawing 77] , and assay [drawing 78] combination we derived either the AC50 (50% maximal activity concentration) or LEC (Lowest Effective Concentration) in [drawing 79] M denoted as, [drawing 80] . All chemicals are provided in Dataset S3 and all assays are given in Dataset S1. The procedure for evaluating the quality of [drawing 81] are described in the supplementary methods (Text S1) and all assay results are provided in Dataset S2. In order to facilitate comparison across the assays the [drawing 82] were transformed by the formula, [drawing 83] where [drawing 84] represents a the potency on an ascending scale, and [drawing 85] is the maximum concentration (lowest potency) across the data set.
(§3) The aggregate NR activity [drawing 86] , where [drawing 87] , was calculated using assays [drawing 88] . The aggregate scaled NR activity score for each chemical [drawing 89] was calculated as the average concentration value across the assays, scaled by the maximum value across all chemicals using Equation 1. [drawing 90] (1)

A further data set relates to AhR. The data set can be described thus: Aggregate nuclear receptor activity: AhR. Conditions: aggregate human NR activity, in words.
Excerpt: as §1, §2, §3

For another data set, the system named is CAR. The data set can be described thus: Aggregate nuclear receptor activity: CAR. Conditions: aggregate human NR activity, in words.
Excerpt: as §1, §2, §3

Data set [2] concerns SR (steroid receptor-like). The data set can be described thus: Aggregate nuclear receptor activity: SR. The following applies: aggregate human NR activity, in words.
Excerpt: as §1, §2, §3

In the next data set the test system is PXR. Briefly: Aggregate nuclear receptor activity: PXR. Also noted: species or system human. Conditions: aggregate human NR activity, in words.
Excerpt: as §1, §2, §3

Data set [3] concerns liver. The following applies: 2-year chronic feeding studies in both rat and mouse; ToxRefDB ref 5; cited from earlier work.

Consider `CNC(=O)Oc1cccc2ccccc12` [Carbaryl, naphthalen-1-yl methylcarbamate], for which the SR activity result with SR was “activity”.
As for `CCNC(=O)NC(=O)/C(C#N)=N/OC` [Cymoxanil, (2E)-2-cyano-N-(ethylcarbamoyl)-2-(methoxyimino)acetamide], the “lesion progression group (LPG)” value in the data set on liver [1] is “Cymoxanil”.
Still for that read-out and setting: the result for `CC[C@H](C)[C@H]1O[C@]2(C=C[C@@H]1C)C[C@@H]1C[C@@H](C/C=C(\C)[C@@H](O[C@H]3C[C@H](OC)[C@@H](O[C@H]4C[C@H](OC)[C@@H](NC)[C@H](C)O4)[C@H](C)O3)[C@@H](C)/C=C/C=C3\CO[C@@H]4[C@H](O)C(C)=C[C@@H](C(=O)O1)[C@]34O)O2.O=C(O)c1ccccc1` [Emamectin benzoate, (2aE,4E,5\S,6S,6\R,7S,8E,11R,13S,15S,17aR,20R,20aR,20bS)-20,20b-dihydroxy-5\,6,8,19-tetramethyl-6\-[(1S)-1-methylpropyl]-17-oxo-5\,6,6\,10,11,14,15,17,17a,20,20a,20b-dodecahydro-2H,7H-spiro[11,15-methanofuro[4,3,2-pq][2,6]benzodioxacyclooctadecine-13,2\-pyran]-7-yl 2,6-dideoxy-3-O-methyl-4-O-[2,4,6-trideoxy-3-O-methyl-4-(methylammonio)-a-L-arabino-hexopyranosyl]-a-L-arabino-hexopyranoside benzoate] reads “Emamectin benzoate”.
`C=CCOC(Cn1ccnc1)c1ccc(Cl)cc1Cl` (stereo not drawn) [Imazalil, 1-[2-(allyloxy)-2-(2,4-dichlorophenyl)ethyl]-1H-imidazole]: the “activity with PPAR” value in the data set on PPAR was “most consistently active”. Besides, the “activity with AhR” value with AhR is recorded as “some activity”. The “activity with CAR” value in the data set with CAR is reported as “some activity”. Further, the “activity with SR” value in data set [2] was “some activity”. The “activity with PXR” value in the data set on PXR was “some activity”.
For the compound `CS(=O)(=O)c1cc(C(F)(F)F)ccc1C(=O)c1cnoc1C1CC1` [Isoxaflutole, (5-cyclopropylisoxazol-4-yl)[2-(methylsulfonyl)-4-(trifluoromethyl)phenyl]methanone], in the data set with liver [1], the “lesion progression group (LPG)” value is “I”.
For `Cl[C@H]1[C@H](Cl)[C@@H](Cl)[C@@H](Cl)[C@H](Cl)[C@H]1Cl` [Lindane, (1r,2R,3S,4r,5R,6S)-1,2,3,4,5,6-hexachlorocyclohexane], the “lesion progression group (LPG)” value with liver [1] is recorded as “Lindane”. Further, the “activity with AhR” value in the data set with AhR was “active”. Besides, in the data set on PXR, the “activity with PXR” value is listed as “active”.
For the compound `CCOC(=O)CC(SP(=S)(OC)OC)C(=O)OCC` (stereo not drawn) [Malathion, diethyl 2-[(dimethoxyphosphorothioyl)thio]succinate], in the data set with PPAR, the “activity with PPAR” value is “most consistently active”. Also, in the data set with AhR, the “activity with AhR” value is “some activity”. In the data set on CAR, the “activity with CAR” value is “some activity”. Moreover, the SR activity result in the data set on SR was “known SR activity”. Further, the “activity with SR” value in data set [2] was “some activity”. Further, the “activity with PXR” value in the data set on PXR was “some activity”.
With `CC1(C)C(C=C(Cl)Cl)C1C(=O)OCc1cccc(Oc2ccccc2)c1` (stereo not drawn) [Permethrin, [3-(phenyloxy)phenyl]methyl 3-(2,2-dichloroethenyl)-2,2-dimethylcyclopropanecarboxylate], the “activity with AhR” value in the data set with AhR is recorded as “active”. Also, the “activity with CAR” value with CAR is reported as “most consistently active”. In the data set on PXR, the “activity with PXR” value was “active”.
With `CCCN(CCOc1c(Cl)cc(Cl)cc1Cl)C(=O)n1ccnc1` [Prochloraz, N-propyl-N-[2-(2,4,6-trichlorophenoxy)ethyl]-1H-imidazole-1-carboxamide], the “activity with CAR” value in the data set on CAR is “most consistently active”. The “activity with PXR” value in the data set on PXR was “active”.
Regarding `C#CC(C)(C)NC(=O)c1cc(Cl)cc(Cl)c1` [Propyzamide, 3,5-dichloro-N-(1,1-dimethylprop-2-yn-1-yl)benzamide], the “activity with AhR” value in the data set with AhR is recorded as “active”. The “activity with CAR” value in the data set on CAR was “most consistently active”. Also, the “activity with PXR” value in the data set on PXR is recorded as “active”.
As for `CCOP(=S)(Oc1cnc(C(C)(C)C)nc1)OC(C)C` (stereo not drawn) [Tebupirimfos, O-(2-tert-butylpyrimidin-5-yl) O-ethyl O-isopropyl thiophosphate], the “liver injury (liver histopathology)” value with liver [3] was “negative for any liver injury”.
